We go through 22 compounds from patent US9315475B2 (MERCK SHARP & DOHME CORP., priority 2011, dated 2016).

pIC50: −log10 of the molar value.

In one assay the target is T1, wildtype HIV-1 protease (Human immunodeficiency virus type 1 group M subtype B, UniProt P04585).
T1 construct: the wildtype HIV-1 protease (which was expressed in Escherichia coli); made in house; host or cells: Escherichia coli
Nature of the assay: Assay for inhibition of microbial expressed HIV protease (Pepcleav). It counts as biochemical. The following applies: Pepcleav (nM), wild type HIV-1 protease expressed in E. coli, peptide substrate, pH 5.5; mean of at least two independent experiments. The protocol:
Assay for Inhibition of Microbial Expressed HIV Protease (“Pepcleav”)
Studies of the inhibition of the wildtype HIV-1 protease (which was expressed in Escherichia coli) were carried out with a peptide substrate [Val-Ser-Gln-Asn-(βnaphthyl)Ala-Pro-Ile-Val (SEQ ID NO:1)]. The inhibitor is first preincubated with the HIV-1 protease (wild type) enzyme in assay buffer (50 mM sodium acetate, pH 5.5, 100 mM NaCl, and 0.1% BSA) for 30 minutes at room temperature. Substrate is added to 400 micromolar in a total volume of 20 microliters containing 20 picomolar HIV-1 protease (final) and the reaction is incubated for 1 hour at 30° C. The reaction is quenched with the addition of formic acid and indinavir to 0.012% and 150 nM final concentrations, respectively. The product formation is determined after separation of product and substrate on a Zorbax Eclipse XDB-C 18 column connected to an API 4000 mass spectrometer (Applied Biosystems) with multiple reaction monitoring (transitions were 644.5/428.9 and 615.4/422.2 (M1/M3) for product and indinavir respectively). The extent of inhibition of the reaction is determined from the peak area of the products.
One may read the IC50 as the concentration needed to halve the response being measured. Lower therefore signals greater potency. `COC(=O)N[C@H](C(=O)Nc1ccccc1CC[C@@H]1CN[C@H](CNC(=O)Oc2ccccc2)CO1)C(c1ccccc1)c1ccccc1` [Example 51, Nα-(methoxycarbonyl)-N-(2-{2-[(2R,5R)-5-{[(phenoxycarbonyl)amino]methyl}morpholin-2-yl]ethyl}phenyl)-β-phenyl-L-phenylalaninamide] displayed an IC50 of 38 nM.

The same assay, now with this note: wild type HIV-1 protease expressed in E. coli, peptide substrate, pH 5.5; mean of at least two independent experiments; read-out: Pepcleav.
As to `COC(=O)N[C@H](C(=O)Nc1ccccc1CC[C@@H]1CN[C@H](COC(=O)NCc2ccccc2F)CO1)C(c1ccccc1)c1ccccc1` [Example 12, N-(2-{2-[(2R,5S)-5-({[(2-fluorobenzyl)carbamoyl]oxy}methyl)morpholin-2-yl]ethyl}phenyl)-Nα-(methoxycarbonyl)-β-phenyl-L-phenylalaninamide], the pIC50 is 8.44.

For the compound `COC(=O)N[C@H](C(=O)Nc1ccccc1CC[C@@H]1CN[C@H](CCc2ccccc2NC(=O)CCc2ccccc2)CO1)C(c1ccccc1)c1ccccc1` [Example 71, methyl N-[(1S)-1-benzhydryl-2-oxo-2-[[2-[2-[(2R,5R)-5-[2-[2-(3-phenylpropanoylamino)phenyl]ethyl]morpholin-2-yl]ethyl]phenyl]amino]ethyl]carbamate], the pIC50 was 8.89.

`N[C@H](C(=O)Nc1cccc(F)c1CC[C@@H]1CN[C@H](COC(=O)NCC(F)(F)F)CO1)[C@H](c1ccc(F)cc1)c1ccc(Oc2ccccc2)cc1` [Example 230, (βS)-β-(4-fluorophenyl)-N-(3-fluoro-2-{2-[(2R,5S)-5-({[(2,2,2-trifluoroethyl)carbamoyl]oxy}methyl)morpholin-2-yl]ethyl}phenyl)-O-phenyl-L-tyrosinamide]: the pIC50 is 6.74.

For the compound `COC(=O)N[C@H](C(=O)Nc1ccccc1CC[C@@H]1CN[C@H](Cn2ccnn2)CO1)C(c1ccccc1)c1ccccc1` [Example 66, Nα-(methoxycarbonyl)-β-phenyl-N-(2-{2-[(2R,5R)-5-(1H-1,2,3-triazol-1-ylmethyl)morpholin-2-yl]ethyl}phenyl)-L-phenylalaninamide], the pIC50 was 7.00.

Regarding `COC(=O)N[C@H](C(=O)Nc1ccccc1CC[C@@H]1CO[C@H](CCc2ccccc2NC(=O)[C@@H](NC(=O)OC)C(c2ccccc2)c2ccccc2)CN1)C(c1ccccc1)c1ccccc1` [Example 68, dimethyl [(2R,5R)-morpholine-2,5-diylbis {ethane-2,1-diylbenzene-2,1-diylimino[(2S)-1-oxo-3,3-diphenylpropane-1,2-diyl]}]biscarbamate], the pIC50 was 10.52.

`O=C(NCC(F)(F)F)OC[C@@H]1CO[C@H](CCc2c(F)cncc2NC(=O)[C@@H](NC(=O)OCC(F)(F)F)C(c2ccc(F)cc2)c2ccc(F)cc2)CN1` [Example 141, 4-Fluoro-β-(4-fluorophenyl)-N-(5-fluoro-4-{2-[(2R,5S)-5-({[(2,2,2-trifluoroethyl)carbamoyl]oxy}methyl)morpholin-2-yl]ethyl}pyridin-3-yl)-Nα-[(2,2,2-trifluoroethoxy)carbonyl]-L-phenylalaninamide]: the pIC50 was 6.74.

For `COC(=O)N[C@H](C(=O)Nc1ccccc1CC[C@@H]1CN[C@H](COC(=O)N[C@H]2c3ccccc3C[C@H]2O)CO1)C(c1ccccc1)c1ccccc1` [Example 14, N-[2-(2-{(2R,5S)-5-[({[(1S,2R)-2-hydroxy-2,3-dihydro-1H-inden-1-yl]carbamoyl}oxy)methyl]morpholin-2-yl}ethyl)phenyl]-Nα-(methoxycarbonyl)-β-phenyl-L-phenylalaninamide], the pIC50 is 7.77.

On to `C[C@H](Oc1c(F)cccc1NC(=O)[C@@H](N)C(c1ccc(F)cc1)c1ccc(F)cc1)[C@@H]1CN[C@H](COC(=O)NCc2ccc(F)cc2)CO1` [Example 195, 4-fluoro-N-(3-fluoro-2-{(1S)-1-[(2S,5S)-5-({[(4-fluorobenzyl)carbamoyl]oxy}methyl)morpholin-2-yl]ethoxy}phenyl)-β-(4-fluorophenyl)-L-phenylalaninamide], for which the pIC50 was 7.04.

Take `COC(=O)N[C@H](C(=O)Nc1ccccc1CC[C@@H]1CN[C@H](COC(=O)NCC2CC2)CO1)C(c1ccccc1)c1ccccc1` [Example 22, methyl N-[(1S)-1-benzhydryl-2-[[2-[2-[(2R,5S)-5-(cyclopropylmethylcarbamoyloxymethyl)morpholin-2-yl]ethyl]phenyl]amino]-2-oxo-ethyl]carbamate]: the pIC50 was 7.24.

`COC(=O)N[C@H](C(=O)Nc1ccccc1CC[C@@H]1CN[C@H](CNC(=O)c2cc3ccccc3[nH]2)CO1)C(c1ccccc1)c1ccccc1` [Example 56, methyl N-[(1S)-1-benzhydryl-2-[[2-[2-[(2R,5R)-5-[(1H-indole-2-carbonylamino)methyl]morpholin-2-yl]ethyl]phenyl]amino]-2-oxo-ethyl]carbamate]: the pIC50 was 7.47.

Turning to `N[C@H](C(=O)Nc1ccc(F)cc1CC[C@@H]1CN[C@H](COC(=O)NCC(F)F)CO1)C(c1ccccc1)c1ccccc1` [Example 192, N-(2-{2-[(2R,5S)-5-({[(2,2-difluoroethyl)carbamoyl]oxy}methyl)morpholin-2-yl]ethyl}-4-fluorophenyl)-β-phenyl-L-phenylalaninamide], the pIC50 is 6.89.

As to `COC(=O)N[C@H](C(=O)Nc1ccccc1CC[C@@H]1CN[C@H](CNC(=O)Nc2cc[nH]n2)CO1)C(c1ccccc1)c1ccccc1` [Example 43, methyl N-[(1S)-1-benzhydryl-2-oxo-2-[[2-[2-[(2R,5R)-5-[(1H-pyrazol-3-ylcarbamoylamino)methyl]morpholin-2-yl]ethyl]phenyl]amino]ethyl]carbamate], the pIC50 was 7.02.

On to `COC(=O)N[C@H](C(=O)Nc1ccccc1CC[C@@H]1CN[C@H](C(=O)NNc2ccccc2)CO1)C(c1ccccc1)c1ccccc1` [Example 9, Nα-(methoxycarbonyl)-β-phenyl-N-[2-(2-{(2R,5S)-5-[(2-phenylhydrazinyl)carbonyl]morpholin-2-yl}ethyl)phenyl]-L-phenylalaninamide], for which the pIC50 was 7.06.

Take `COC(=O)N[C@H](C(=O)Nc1ccccc1CC[C@@H]1CN[C@H](COC(=O)NCCN(C)C)CO1)C(c1ccccc1)c1ccccc1` [Example 28, methyl N-[(1S)-1-benzhydryl-2-[[2-[2-[(2R,5S)-5-(2-dimethylaminoethylcarbamoyloxymethyl)morpholin-2-yl]ethyl]phenyl]amino]-2-oxo-ethyl]carbamate]: the pIC50 is 6.60.

Take `COC(=O)N[C@H](C(=O)Nc1ccccc1CC[C@@H]1CN[C@H](CNC(=O)c2[nH]c(=O)ccc2F)CO1)C(c1ccccc1)c1ccccc1` [Example 58, methyl N-[(1S)-1-benzhydryl-2-[[2-[2-[(2R,5R)-5-[[(3-fluoro-6-oxo-1H-pyridine-2-carbonyl)amino]methyl]morpholin-4-ium-2-yl]ethyl]phenyl]amino]-2-oxo-ethyl]carbamate]: the pIC50 is 7.18.

As to `COC(=O)N[C@H](C(=O)Nc1ccccc1CC[C@@H]1CN[C@H](CNC(=O)c2cc3ncccn3n2)CO1)C(c1ccccc1)c1ccccc1` [Example 59, methyl N-[(1S)-1-benzhydryl-2-oxo-2-[[2-[2-[(2R,5R)-5-[(pyrazolo[1,5-a]pyrimidine-2-carbonylamino)methyl]morpholin-2-yl]ethyl]phenyl]amino]ethyl] carbamate], the pIC50 is 7.15.

For the compound `COC(=O)N[C@H](C(=O)Nc1ccccc1CC[C@@H]1CN[C@H](COc2ccccc2)CO1)C(c1ccccc1)c1ccccc1` [Example 63, Nα-(methoxycarbonyl)-N-(2-{2-[(2R,5S)-5-(phenoxymethyl)morpholin-2-yl]ethyl}phenyl)-β-phenyl-L-phenylalaninamide], the pIC50 was 7.31.

As to `CS(=O)(=O)CC[C@@H]1CO[C@H](COc2c(F)cccc2NC(=O)[C@@H](N)C(c2ccccc2)c2ccccc2)CN1` [Example 232, N-[3-fluoro-2-({(2S,5R)-5-[2-(methylsulfonyl)ethyl]morpholin-2-yl}methoxy)phenyl]-β-phenyl-L-phenylalaninamide], the pIC50 is 6.82.

For `COC(=O)N[C@H](C(=O)Nc1ccccc1CC[C@@H]1CN[C@H](CNS(=O)(=O)C2CC2)CO1)C(c1ccccc1)c1ccccc1` [Example 47, methyl N-[(1S)-1-benzhydryl-2-[[2-[2-[(2R,5R)-5-[(cyclopropyl-sulfonylamino)methyl]morpholin-2-yl]ethyl]phenyl]amino]-2-oxo-ethyl]carbamate], the pIC50 was 7.08.

Regarding `COC(=O)N[C@H](C(=O)Nc1cnccc1CC[C@@H]1CN[C@H](COC(=O)NCc2ccc(F)cc2)CO1)C(c1ccccc1)c1ccccc1` [Example 33, N-(4-{2-[(2R,5S)-5-({[(4-fluorobenzyl)carbamoyl]oxy}methyl)morpholin-2-yl]ethyl}pyridin-3-yl)-Nα-(methoxycarbonyl)-β-phenyl-L-phenylalaninamide], the pIC50 was 8.24.

`COC(=O)N[C@H](C(=O)Nc1ncccc1CC[C@@H]1CN[C@H](COC(=O)NCc2ccc(F)cc2)CO1)C(c1ccccc1)c1ccccc1` [Example 32, N-(3-{2-[(2R,5S)-5-({[(4-fluorobenzyl)carbamoyl]oxy}methyl)morpholin-2-yl]ethyl}pyridin-2-yl)-Nα-(methoxycarbonyl)-β-phenyl-L-phenylalaninamide]: the pIC50 was 7.68.
